≈ marks a conversion by molar mass, not a printed value. Where two headings read alike, the source gives them in different places. Marks after values point to notes of the source that are not given here.
Key:
[1] = Aqueous solubility at pH 1.2 and pH 6.8; format: physicochemical; conditions: aqueous solution
[2] = In vivo assay of body temperature increase (rectal body temperature); parameters: species or system rat; conditions: rats, oral, 10 mL/kg of 1 mg/mL in 0.5% methylcellulose; greatest ΔTb versus vehicle control at 0.5, 1 or 2 hrs
From the text: Hyperthermia or undesirable elevation in animal body temperature is known to be an undesirable side-effect accompanying the administration of certain TRPV1 antagonists (Gavva, “Body-temperature maintenance as the predominant function of the vanilloid receptor TRPV1,” Trends Pharmacol. Sci. 29(11):550-557 (2008)).
Test Animals: Selection of rats (Crl/SD rats, 7 weeks, male) was based on rectal body temperature measured during the morning of the day of dosing as described below. In addition, to minimize spontaneous, stress-induced increases in body temperature, rats were acclimated in advance to both the rectal measurement procedure and to being handled and dosed. All lodging and testing took place in animal care laboratories with constant room temperature and humidity. The rats were free to move and ingest food and water throughout. Each rat was coded with a colored line on the tail, housed in a separate cage, and permitted the normal range of movement. Immediately before each body temperature measurement, a rat was transferred to a measurement cage. To reduce stress which could influence its body temperature, each rat was covered with towels during the measurement. A thermistor probe was then carefully inserted into the rectum of each rat and left in place until the temperature reading on the digital display had stabilized; this value was recorded.
Assay: On the day before dosing, rectal body temperature was measured at 9:00, 10:00, 11:00, 12:30, 13:30, 14:30, and 15:30 o'clock to familiarize the rats with the measurement procedure prior to administration of the test or control treatments. The rats were also dosed by oral gavage without vehicle at 12:30 o'clock to acclimate and familiarize them with the handling and dosing procedure.
On the day of dosing, only rats with rectal body temperatures within the range of from 37.0° C. to 37.7° C. were selected for study. Rectal body temperatures were measured at 9:00, 10:00, and 11:00 o'clock. Rats were excluded from the study if either their rectal body temperature was over 37.9° C. at 10:00 o'clock or was outside the range of from 37.0° C. to 37.7° C. at 11:00 o'clock. The selected rats were divided into several groups based on their rectal body temperatures at 11:00 o'clock. Rectal body temperatures of the selected rats were measured again at 12:30 o'clock and any rat with a rectal body temperature of 38.0° C. or greater was also excluded from the study.
Following assignment to either a test or control group, a test compound or a control was administered to the rats. Each test compound was dissolved in a vehicle of 0.5% aqueous methylcellulose solution and the final concentration of the test compound was adjusted to 1 mg/mL. Each test compound was orally administered once at a dose of 10 mL/kg. The same volume of the control (vehicle only) was administered once to the control group. Rectal body temperatures were measured at the following time points: 0.5, 1, and 2 hrs after administration.
The body temperature increase (ΔTb) for each test compound was calculated by subtracting, at each time point, the average temperature of the control group from the average temperature of the group administered that test compound. The greatest ΔTb obtained for each test compound at any of the time points is shown in Table 11 below, along with the ΔTb of the control.

[3] = system: FCA-induced inflammation of the rat hind paw; assay: Freund's complete adjuvant (FCA) model of inflammatory pain, paw withdrawal threshold; format: in vivo; conditions: rat FCA, 20 mg/kg
Description: Test Animals: Each experiment uses rats weighing between 200-260 g at the start of the experiment. The rats are group-housed and have free access to food and water at all times, except prior to oral administration of a Compound of Formula (I) when food is removed for 16 hours before dosing. A control group acts as a comparison to rats treated with a Compound of Formula (I). The control group is administered the vehicle for the Compound of Formula (I). The volume of vehicle administered to the control group is the same as the volume of carrier and Compound of Formula (I) administered to the test group.
Inflammatory Pain: To assess the actions of a Compound of Formula (I) for the treatment or prevention of inflammatory pain, the Freund's complete adjuvant (“FCA”) model of inflammatory pain was used. FCA-induced inflammation of the rat hind paw is associated with the development of persistent inflammatory mechanical hyperalgesia and provides reliable prediction of the anti-hyperalgesic action of clinically useful analgesic drugs (Bartho et al., “Involvement of capsaicin-sensitive neurons in hyperalgesia and enhanced opioid antinociception in inflammation,” Naunyn-Schmiedeberg's Archives of Pharmacol. 342:666-670 (1990)). The right hind paw of each male, 6-week old Jcl:SD rat was administered a 50 μL intraplantar injection of 50% FCA (Sigma-Aldrich). 24 hour post-injection, the animal was assessed for response to noxious mechanical stimuli by determining the PWT, as described below. Rats were then administered a single injection of 0.1, 0.3, 1, 3, or 10 mg/kg of either the product prepared with Compound A155(a) and fumaric acid as described in Example 10, 20 mg/kg of an ibuprofen control (EMD Millipore Chemicals, Inc.), or vehicle as a control (0.5% weight/volume methylcellulose (400cP, Wako Pure Chemical Industries, Ltd., Osaka, Japan)/aqueous solution). […] Responses to noxious mechanical stimuli were then determined 1, 3, 5, and 7 hours post-administration. Percentage reversal of hyperalgesia for each animal was defined as: […]
With the exception of the controls (i.e., ibuprofen, vehicle) where the student's t-test was used, Dunnett's test was conducted for the % reversal. In either instance, values with p<0.05 were considered to be statistically significant. The % reversal results for administration of the product prepared with Compound A155(a) and fumaric acid as described in Example 10 and the respective controls are presented in Table 7.
Response to Mechanical Stimuli as an Assessment of Mechanical Hyperalgesia: The paw pressure assay was used to assess mechanical hyperalgesia. For this assay, hind paw withdrawal thresholds (PWT) to a noxious mechanical stimulus were determined using an analgesymeter (Model 37215, commercially available from Ugo Basile of Italy) as described in Stein, “Unilateral Inflammation of the Hindpaw in Rats as a Model of Prolonged Noxious Stimulation: Alterations in Behavior and Nociceptive Thresholds,” Pharmacol. Biochem. and Behavior 31:451-455 (1988). The maximum weight that could be applied to the hind paw was set at 250 g and the end point was taken as complete withdrawal of the paw. PWT was determined once for each rat at each time point and either only the affected (ipsilateral) paw was tested, or both the ipsilateral and contralateral (non-injured) paw were tested.

[4] = pH 1.2, read-out: aqueous solubility at pH 1.2
[5] = pH 6.8, read-out: aqueous solubility at pH 6.8

## O=C(Nc1ccc(C(F)(F)F)cc1)N1CC=C(c2ncccc2F)CC1 [Compound 208]
[1]; pH 6.8
  aqueous solubility at pH 6.8: insoluble

## C[C@@H]1CN(c2ncc([C@H](O)CO)cc2C(F)(F)F)CCN1C(=O)Nc1nc2ccccc2s1 [DC]
[2]
  ΔTb, body temperature increase: 1.0 °C

## C[C@@H]1CN(c2ncc([C@H](O)CO)cc2F)CCN1C(=O)Nc1nc2ccccc2s1 [DB]
[2]
  ΔTb, body temperature increase: 1.1 °C

## Cc1cc2nc(NC(=O)N3CCN(c4ncc([C@H](O)CO)cc4F)C[C@H]3C)sc2cc1C [DL]
[2]
  ΔTb, body temperature increase: 0.9 °C

## COc1ccc2nc(NC(=O)N3CCN(c4ncc([C@H](O)CO)cc4F)C[C@H]3C)sc2c1 [DO]
[2]
  ΔTb, body temperature increase: 1.1 °C

## O=C(Nc1ccc(C(F)(F)F)c(F)c1)N1CCC(F)(c2ncccc2F)CC1 [Compound 212]
[1]; [4]
  solubility: 10.3 µM (≈ 4.15 µg/mL)
[1]; [5]
  solubility: 1.9 µM (≈ 0.766 µg/mL)

## C[C@H]1CN(C(=O)Nc2nc3ccc(F)cc3s2)CCN1c1ncc([C@H](O)CO)cc1F [AD]
[2]
  ΔTb, body temperature increase: 0.6 °C

## O=C(Nc1ccc(C(F)(F)F)c(F)c1)N1CCC(F)(c2ncccc2Cl)CC1 [Compound 209]
[1]; [4]
  solubility: 9.3 µM (≈ 3.9 µg/mL)
[1]; [5]
  solubility: 1.0 µM (≈ 0.42 µg/mL)

## C[C@@H]1CN(c2ncc([C@H](O)CO)cc2C(F)(F)F)CCN1C(=O)Nc1nc2ccc(F)cc2s1 [DI]
[2]
  ΔTb, body temperature increase: 0.8 °C

## C[C@H](O)[C@@H](O)c1cnc(N2CCN(C(=O)Nc3nc4ccc(F)cc4s3)[C@H](C)C2)c(F)c1 [BC]
[2]
  ΔTb, body temperature increase: 0.7 °C

## O=C(Nc1ccc(C(F)(F)F)cc1)N1CC=C(c2ncccc2Cl)CC1 [Compound 200]
[1]; [4]
  solubility: < 0.1 µM

## C[C@H]1CN(c2ncc([C@H](O)CO)cc2F)CCN1C(=O)Nc1nc2ccc(Cl)cc2s1 [AB]
[2]
  ΔTb, body temperature increase: 0.6 °C

## O=C(Nc1nc2ccc(F)cc2s1)N1CCN(c2ncc([C@H](O)CO)cc2Cl)CC1 [DD]
[2]
  ΔTb, body temperature increase: 1.0 °C

## COc1ccc2nc(NC(=O)N3CCN(c4ncc([C@H](O)CO)cc4Cl)CC3)sc2c1 [DP]
[2]
  ΔTb, body temperature increase: 1.2 °C

## C[C@H](O)[C@@H](O)c1cnc(N2CCN(C(=O)Nc3nc4ccc(F)cc4s3)[C@H](C)C2)c(Cl)c1 [BA]
[2]
  ΔTb, body temperature increase: 0.9 °C

## C[C@@H]1CN(c2ncc([C@H](O)CO)cc2Cl)CCN1C(=O)Nc1nc2ccc(F)cc2s1 [DE]
[2]
  ΔTb, body temperature increase: 1.3 °C

## C[C@H]1CN(c2ncc([C@H](O)CO)cc2F)CCN1C(=O)Nc1nc2ccc(F)cc2s1 [AC]
[2]
  ΔTb, body temperature increase: 0.7 °C

## O=C(Nc1ccc(OC(F)(F)F)cc1)N1CC=C(c2ncccc2Cl)CC1 [Compound 214]
[1]; [4]
  solubility: > 50 µM
[1]; [5]
  solubility: 1.8 µM (≈ 0.716 µg/mL)

## O=C(Nc1nc2ccc(F)cc2s1)N1CCN(c2ncc([C@H](O)CO)cc2F)CC1 [DF]
[2]
  ΔTb, body temperature increase: 0.5 °C

## O=C(Nc1ccc(OC(F)(F)F)cc1)N1CCC(F)(c2ncccc2Cl)CC1 [Compound 211]
[1]; [4]
  solubility: 1.3 µM (≈ 0.543 µg/mL)
[1]; [5]
  solubility: 0.4 µM (≈ 0.167 µg/mL)

## O=C(Nc1ccc(C(F)(F)F)c(Cl)c1)N1CC=C(c2ncccc2F)CC1 [Compound 215]
[1]; [4]
  solubility: 9.6 µM (≈ 3.84 µg/mL)
[1]; [5]
  solubility: 0.6 µM (≈ 0.24 µg/mL)

## CC(C)Cc1ccc(C(C)C(=O)O)cc1 (stereo not drawn) [Ibuprofen, ibuprofen, reference compound]
[3]; 1 h after administration
  % Reversal [mean]: 28.6^†† %
[3]; 1 h after administration, listed as ibuprofen
  % Reversal [mean]: 28.6%
[3]; 3 h after administration
  % Reversal [mean]: 41.5^†† %
[3]; 3 h after administration, listed as ibuprofen
  % Reversal [mean]: 41.5%
[3]; 5 h after administration
  % Reversal [mean]: 39.2^†† %
[3]; 5 h after administration, listed as ibuprofen
  % Reversal [mean]: 39.2%
[3]; 7 h after administration
  % Reversal [mean]: 32.5^†† %
[3]; 7 h after administration, listed as ibuprofen
  % Reversal [mean]: 32.5%

## O=C(Nc1nc2ccc(F)cc2s1)N1CCN(c2ncc([C@H](O)CO)cc2C(F)(F)F)CC1 [DH]
[2]
  ΔTb, body temperature increase: 0.9 °C

## O=C(Nc1ccc(C(F)(F)F)cc1)N1CCC(F)(c2ncccc2F)CC1 [Compound 207]
[1]; pH 6.8
  aqueous solubility at pH 6.8: insoluble

## C[C@H]1CN(c2ncc([C@H](O)CO)cc2Cl)CCN1C(=O)Nc1nc2ccc(F)cc2s1 [AA]
[2]
  ΔTb, body temperature increase: 0.8 °C

## Cc1ccc2nc(NC(=O)N3CCN(c4ncc([C@H](O)CO)cc4Cl)CC3)sc2c1 [DJ]
[2]
  ΔTb, body temperature increase: 0.9 °C

## O=C(Nc1ccc(C(F)(F)F)c(F)c1)N1CC=C(c2ncccc2Cl)CC1 [Compound 213]
[1]; [4]
  solubility: 39.6 µM (≈ 15.8 µg/mL)
[1]; [5]
  solubility: 0.8 µM (≈ 0.32 µg/mL)

## Cc1cc([C@H](O)CO)cnc1N1CCN(C(=O)Nc2nc3ccc(Cl)cc3s2)CC1 [DN]
[2]
  ΔTb, body temperature increase: 0.8 °C

## C[C@@H]1CN(c2ncc([C@H](O)CO)cc2F)CCN1C(=O)Nc1nc2cc(F)ccc2s1 [DK]
[2]
  ΔTb, body temperature increase: 0.7 °C

## Cc1cc2nc(NC(=O)N3CCN(c4ncc([C@H](O)CO)cc4C)CC3)sc2cc1C [DM]
[2]
  ΔTb, body temperature increase: 0.9 °C

## C[C@@H]1CN(c2ncc([C@H](O)CO)cc2F)CCN1C(=O)Nc1nc2ccc(F)cc2s1 [DG]
[2]
  ΔTb, body temperature increase: 1.0 °C

## O=C(Nc1ccc(C(F)(F)F)cc1)N1CCC(F)(c2ncccc2Cl)CC1 [Compound 203]
[1]; pH 6.8
  aqueous solubility at pH 6.8: insoluble

## O=C(Nc1ccc(S(=O)(=O)C(F)(F)F)cc1)N1CCC(F)(c2ncccc2Cl)CC1 [Compound 210]
[1]; [4]
  solubility: 2.0 µM (≈ 0.932 µg/mL)
[1]; [5]
  solubility: 0.4 µM (≈ 0.186 µg/mL)

## C[C@@H]1CN(c2ncc([C@H](O)CO)cc2Cl)CCN1C(=O)Nc1nc2ccccc2s1 [DA]
[2]
  ΔTb, body temperature increase: 0.9 °C

From patent US9273043B2, “TRPV1 antagonists including dihydroxy substituent and uses thereof” (Purdue Pharma L.P., priority 2011, dated 2016)
